Structures can show the parent of a compound that is named as a salt.
molecular target: T1, MPO (purified from human polynuclear leukocytes) (Homo sapiens, UniProt P05164); assay: MPO Amplex Red Activity Assay; type: biochemical; settings: Table 1, 2 μM H2O2, pH 7.4
T1 construct: purified from human polynuclear leukocytes; purchased Calbiochem/EMD Biosciences; host or cells: human polynuclear leukocytes (natural source)
In short: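 Human leukocyte MPO […] oxidises 30 μM Amplex Red with 2 μM H2O2 in 50 mM NaPi pH 7.4, 150 mM NaCl, 1 mM DTPA, 2% DMSO. Resorufin fluorescence (ex 530/em 580 nm) read every 20 s, minus catalase background. kobs from the first 600 s, corrected for auto-inactivation, fit versus [I] for kinact/KI.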

T1 sequence (P05164 279-745 limits assumed): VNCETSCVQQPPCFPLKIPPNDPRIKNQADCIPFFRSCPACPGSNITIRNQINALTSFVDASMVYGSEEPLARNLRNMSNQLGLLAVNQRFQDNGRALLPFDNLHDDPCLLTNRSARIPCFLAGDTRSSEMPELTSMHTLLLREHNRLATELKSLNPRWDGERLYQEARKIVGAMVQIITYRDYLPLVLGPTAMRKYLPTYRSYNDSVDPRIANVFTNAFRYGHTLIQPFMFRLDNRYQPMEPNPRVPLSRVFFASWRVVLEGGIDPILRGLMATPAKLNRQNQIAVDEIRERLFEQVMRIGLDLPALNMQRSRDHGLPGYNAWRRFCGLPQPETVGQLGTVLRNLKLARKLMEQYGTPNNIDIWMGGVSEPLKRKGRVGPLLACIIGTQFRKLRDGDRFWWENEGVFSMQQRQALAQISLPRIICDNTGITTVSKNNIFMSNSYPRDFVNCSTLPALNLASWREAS
T1 sequence (P05164 165-273 limits assumed): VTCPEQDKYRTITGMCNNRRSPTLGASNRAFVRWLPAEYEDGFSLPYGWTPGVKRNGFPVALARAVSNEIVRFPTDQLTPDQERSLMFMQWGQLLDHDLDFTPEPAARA

MPO kinact/Ki	SMILES
5120 1/s per M	COc1ncc(Cl)cc1-c1cc(=O)[nH]c(=S)n1CCCN [Example 93, 1-(3-aminopropyl)-6-(5-chloro-2-methoxypyridin-3-yl)-2-thioxo-2,3-dihydropyrimidin-4(1H)-one hydrochloride]
14900 1/s per M	NC(=O)Cn1c(-c2cccc3[nH]ccc23)cc(=O)[nH]c1=S [Example 29, 2-[6-(1H-indol-4-yl)-4-oxo-2-thioxo-3,4-dihydropyrimidin-1(2H)-yl]acetamide]
12200 1/s per M	COc1ccc(Cl)cc1-c1cc(=O)[nH]c(=S)n1CCN [Example 63, 1-(2-aminoethyl)-6-(5-chloro-2-methoxyphenyl)-2-thioxo-2,3-dihydropyrimidin-4(1H)-one hydrochloride]
5310 1/s per M	NCCn1c(-c2ccc3c(c2)CCO3)cc(=O)[nH]c1=S [Example 14, 1-(2-aminoethyl)-6-(2,3-dihydro-1-benzofuran-5-yl)-2-thioxo-2,3-dihydropyrimidin-4(1H)-one hydrochloride]
3110 1/s per M	CCOc1ccccc1-c1cc(=O)[nH]c(=S)n1CCOC [Example 310, 6-(2-ethoxyphenyl)-1-(2-methoxyethyl)-2-thioxo-2,3-dihydropyrimidin-4(1H)-one]
1580 1/s per M	COCCn1c(-c2cc3ccccc3n2C)cc(=O)[nH]c1=S [Example 66, 1-(2-methoxyethyl)-6-(1-methyl-1H-indol-2-yl)-2-thioxo-2,3-dihydropyrimidin-4(1H)-one]
10900 1/s per M	COc1ccc(-c2cc(=O)[nH]c(=S)n2CCN=C(N)N)c(OC)c1 [Example 7, 2-(2-(6-(2,4-dimethoxyphenyl)-4-oxo-2-thioxo-3,4-dihydropyrimidin-1(2H)-yl)ethyl)guanidine]
4690 1/s per M	COc1ccc(-c2cc(=O)[nH]c(=S)n2C[C@@H]2CCCO2)c(OC)c1 [Example 213, 6-(2,4-dimethoxyphenyl)-1-[(2S)-tetrahydrofuran-2-ylmethyl]-2-thioxo-2,3-dihydropyrimidin-4(1H)-one]
5970 1/s per M	COc1cc(OC)c(-c2cc(=O)[nH]c(=S)n2CCO)cc1F [Example 184, 6-(5-fluoro-2,4-dimethoxyphenyl)-1-(2-hydroxyethyl)-2-thioxo-2,3-dihydropyrimidin-4(1H)-one]
1590 1/s per M	COCCn1c(-c2ccc(C#N)cc2OC)cc(=O)[nH]c1=S [Example 70, 3-methoxy-4-[3-(2-methoxyethyl)-6-oxo-2-thioxo-1,2,3,6-tetrahydro-pyrimidin-4-yl]benzonitrile]
5870 1/s per M	NCCCn1c(-c2cccc3[nH]ccc23)cc(=O)[nH]c1=S [Example 30, 1-(3-aminopropyl)-6-(1H-indol-4-yl)-2-thioxo-2,3-dihydropyrimidin-4(1H)-one trifluoroacetate]
9740 1/s per M	COc1ccc(-c2cc(=O)[nH]c(=S)n2CCN)c2ccccc12 [Example 185, 1-(2-aminoethyl)-6-(4-methoxy-1-naphthyl)-2-thioxo-2,3-dihydropyrimidin-4(1H)-one hydrochloride]
3570 1/s per M	NCCCn1c(-c2cc3ccccc3s2)cc(=O)[nH]c1=S [Example 71, 1-(3-aminopropyl)-6-(1-benzothien-2-yl)-2-thioxo-2,3-dihydropyrimidin-4(1H)-one hydrochloride]
5010 1/s per M	COc1ccc(-c2cc(=O)[nH]c(=S)n2CCO)cc1 [Example 12, 1-(2-hydroxyethyl)-6-(4-methoxyphenyl)-2-thioxo-2,3-dihydropyrimidin-4(1H)-one]
5000 1/s per M	COCCn1c(-c2cccc3c2OCC3)cc(=O)[nH]c1=S [Example 41, 6-(2,3-dihydro-1-benzofuran-7-yl)-1-(2-methoxyethyl)-2-thioxo-2,3-dihydropyrimidin-4(1H)-one]
6290 1/s per M	COCCn1c(-c2cccc3[nH]ccc23)cc(=O)[nH]c1=S [Example 304, 6-(1H-indol-4-yl)-1-(2-methoxyethyl)-2-thioxo-2,3-dihydropyrimidin-4(1H)-one]

MPO kinact/Ki	SMILES
3260 1/s per M	CNC(=O)CCn1c(-c2ccc(OC)cc2OC)cc(=O)[nH]c1=S [Example 216, 3-[6-(2,4-dimethoxyphenyl)-4-oxo-2-thioxo-3,4-dihydropyrimidin-1(2H)-yl]-N-methylpropanamide]
3550 1/s per M	COc1ccc(-c2cc(=O)[nH]c(=S)n2CCNC(=O)[C@@H](C)N)c(OC)c1 [Example 255, N-{2-[6-(2,4-dimethoxyphenyl)-4-oxo-2-thioxo-3,4-dihydropyrimidin-1(2H)-yl]ethyl}-D-alaninamide trifluoroacetate]
15400 1/s per M	COc1cc2ccccc2cc1-c1cc(=O)[nH]c(=S)n1CCN [Example 95, 1-(2-aminoethyl)-6-(3-methoxy-2-naphthyl)-2-thioxo-2,3-dihydropyrimidin-4(1H)-one hydrochloride]
5350 1/s per M	COc1ccc(-c2cc(=O)[nH]c(=S)n2CC(C)CO)c(OC)c1 (stereo not shown) [Example 195, 6-(2,4-dimethoxyphenyl)-1-(3-hydroxy-2-methylpropyl)-2-thioxo-2,3-dihydropyrimidin-4(1H)-one]
10200 1/s per M	COCCn1c(-c2cc3ccccc3s2)cc(=O)[nH]c1=S [Example 323, 6-(1-benzothien-2-yl)-1-(2-methoxyethyl)-2-thioxo-2,3-dihydropyrimidin-4(1H)-one]
6660 1/s per M	COc1ccccc1-c1cc(=O)[nH]c(=S)n1CCN=C(N)N [Example 77, 2-{2-[6-(2-methoxyphenyl)-4-oxo-2-thioxo-3,4-dihydropyrimidin-1(2H)-yl]ethyl}guanidine hydrochloride]
3940 1/s per M	COc1ccc(-c2cc(=O)[nH]c(=S)n2CC(C)C(N)=O)c(OC)c1 (stereo not shown) [Example 217, 3-[6-(2,4-dimethoxyphenyl)-4-oxo-2-thioxo-3,4-dihydropyrimidin-1(2H)-yl]-2-methylpropanamide]
3330 1/s per M	COCCn1c(-c2ccc3cc[nH]c3c2)cc(=O)[nH]c1=S [Example 301, 6-(1H-indol-6-yl)-1-(2-methoxyethyl)-2-thioxo-2,3-dihydropyrimidin-4(1H)-one]
4930 1/s per M	COc1ccc(-c2cc(=O)[nH]c(=S)n2C[C@@H](O)CN)c(OC)c1 [Example 200, 1-[(2S)-3-amino-2-hydroxypropyl]-6-(2,4-dimethoxyphenyl)-2-thioxo-2,3-dihydropyrimidin-4(1H)-one trifluoroacetate]
604 1/s per M	C=CCn1c(-c2ccc(OC)cc2OC)cc(=O)[nH]c1=S [Example 266, 1-allyl-6-(2,4-dimethoxyphenyl)-2-thioxo-2,3-dihydropyrimidin-4(1H)-one]
1730 1/s per M	COc1ccc(-c2cc(=O)[nH]c(=S)n2CC2CCCN2C(=O)CN)c(OC)c1 (stereo not shown) [Example 262, 6-(2,4-dimethoxyphenyl)-1-[(1-glycylpyrrolidin-2-yl)methyl]-2-thioxo-2,3-dihydropyrimidin-4(1H)-one hydrochloride]
9820 1/s per M	COCCn1c(-c2ccc(Cl)cc2OC)cc(=O)[nH]c1=S [Example 335, 6-(4-chloro-2-methoxyphenyl) 1-(2-methoxyethyl)-2-thioxo-2,3-dihydropyrimidin-4(1H)-one]
19700 1/s per M	COc1ccc(-c2cc(=O)[nH]c(=S)n2CCCC[C@H](N)C(N)=O)c(OC)c1 [Example 260, 6-[6-(2,4-dimethoxyphenyl)-4-oxo-2-thioxo-3,4-dihydropyrimidin-1(2H)-yl]norleucinamide hydrochloride]
1580 1/s per M	Cl.NCCCOc1ccccc1-c1cc(=O)[nH]c(=S)n1CCN [Example 79, 1-(2-aminoethyl)-6-[2-(3-aminopropoxy)phenyl]-2-thioxo-2,3-dihydropyrimidin-4(1H)-one hydrochloride]
10700 1/s per M	COc1cc(OC)cc(-c2cc(=O)[nH]c(=S)n2CCCN)c1 [Example 85, 1-(3-aminopropyl)-6-(3,5-dimethoxyphenyl)-2-thioxo-2,3-dihydropyrimidin-4(1H)-one hydrochloride]
6520 1/s per M	COc1ccc(-c2cc(=O)[nH]c(=S)n2CCNC(=O)[C@H](C)N)c(OC)c1 [Example 256, N-{2-[6-(2,4-dimethoxyphenyl)-4-oxo-2-thioxo-3,4-dihydropyrimidin-1(2H)-yl]ethyl}-L-alaninamide trifluoroacetate]

same assay, conditions: Table 1A, 2 μM H2O2, pH 7.4

MPO kinact/Ki	SMILES
12800 1/s per M	COc1ccc(C)cc1-c1cc(=O)[nH]c(=S)n1CC(=O)NCCN [Example 373, N-(2-aminoethyl)-2-[6-(2-methoxy-5-methylphenyl)-4-oxo-2-thioxo-3,4-dihydropyrimidin-1(2H)-yl]acetamide]
2940 1/s per M	NCCn1c(-c2ccc3c(c2)OCCO3)cc(=O)[nH]c1=S [Example 357, 1-(2-aminoethyl)-6-(2,3-dihydro-1,4-benzodioxin-6-yl)-2-thioxo-2,3-dihydropyrimidin-4(1H)-one]
2930 1/s per M	COc1cccc(-c2cc(=O)[nH]c(=S)n2CC(N)=O)c1 [Example 384, 2-[6-(3-methoxyphenyl)-4-oxo-2-thioxo-3,4-dihydropyrimidin-1(2H)-yl]acetamide]
27800 1/s per M	COc1ccc(-c2cc(=O)[nH]c(=S)n2CC(F)(F)CN=C(N)N)c(OC)c1 [Example 453, 2-{3-[6-(2,4-dimethoxyphenyl)-4-oxo-2-thioxo-3,4-dihydropyrimidin-1(2H)-yl]-2,2-difluoropropyl}guanidine]
2060 1/s per M	COc1ccc(Cl)cc1-c1cc(=O)[nH]c(=S)n1C[C@H](C)N [Example 361, 1-[(2S)-2-aminopropyl]-6-(5-chloro-2-methoxyphenyl)-2-thioxo-2,3-dihydropyrimidin-4(1H)-one]
